# Test system: U2OS cells
# Assay: Cell cycle analysis based on EdU incorporation
# Conditions: for S-phase indices: CU1 200 μM or CU2 500 μM
# Protocol: Figure 3 Cell-based assays with CU1 and CU2: (a) Western blot showing that the formation of mUb-FANCD2(*), in response to HU treatment (2.5 mM, 8 h), is impaired in U2OS cells in the presence of CU1 (200 μM) or CU2 (500 μM). Ratio = mUb-FANCD2/FANCD2 (normalized to DMSO control). mUb-FANCD2 was resolved on a separate gel. PARP1 was used as a loading control for each gel, as well as to assess apoptosis. (b) Quantification of the reduction in mUb-FANCD2, in response to HU treatment (2.5 mM, 8 h) in the presence of CU1 (200 μM) or CU2 (500 μM). Mean calculated from three independent experiments. (c) Western blot showing that formation of mUb-FANCD2 (denoted by an asterisk symbol, *) in response to cisplatin treatment (10 μM) for 6, 12, and 24 h is impaired in U2OS cells in the presence of CU2 (500 μM). Ratio = mUb-FANCD2/FANCD2 (normalized to DMSO control). (d) Cell cycle analyses based upon EdU incorporation in cells treated with HU (2.5 mM, 8 h) in the presence or absence of CU1 (200 μM) or CU2 (500 μM). HU treatment was used for gating purposes. […] TEXT PRINTED IN THE PICTURE: (d) DMSO: S-phase 42.7; G1 29.2; G2-M 27.8 | (d) HU: S-phase 0.24; G1 72.4; G2-M 22.9 | (d) CU1: S-phase 43.4; G1 26.8; G2-M 29.1 | (d) CU2: S-phase 39.7; G1 31.9; G2-M 28.2 DOUBTS OF THE COPYIST ABOUT THIS PICTURE: Panel d print is small, so these digits are best readings: DMSO G2-M 27.8 (8 or 6); CU1 G1 26.8 (6 or 8); CU2 S-phase 39.7 (9 or 8); CU2 G2-M 28.2 (8 or 6) / Panels a and c: the lane ratios printed under the western blots (a: 1.0, 0.64, 0.40; c: 1.0/0.65, 1.0/0.63, 1.0/0.53) were left out because they belong to blots and the picture prints no measure for them […]
# As DNA damage induced by HU is cell-cycle-dependent, it was necessary to establish whether CU1 and CU2 might simply prevent cells from entering the S-phase, which would also manifest itself as a reduction in mUb-FANCD2. This was determined by analysis of several biomarkers linked to DNA damage in cycling cells. […]
compound,measurement,setting,value
NCCN1C(=O)CC[C@H]2CN(Cc3cccc(-c4ccco4)c3)CC[C@H]21 [CU1],EdU incorporation intensity,CU1 200 μM,slightly lower
same,S-phase indices,,no reduction in S-phase indices
CCN1CCN(c2cc(C)nc3nc(CN4CCCCC4C)nn23)CC1 (stereo not drawn) [CU2],S-phase indices,,no reduction in S-phase indices

# Reference: paper PMC6804243, “Small-Molecule Inhibition of UBE2T/FANCL-Mediated Ubiquitylation in the Fanconi Anemia Pathway” (ACS Chemical Biology, 2019)
